Results: ChEMBL document CHEMBL1150409, “Development of paramagnetic probes for molecular recognition studies in protein kinases” (J Med Chem, 2008)
Activity calls are given as the source filed them. The calls are words filed in the database; no cut-off is given here. Peptide text beside a SMILES is read from it. * marks the point of attachment. X1 = O=C(NCCCN*)c1ccc(-c2n[nH]c3ccccc23)cc1

Key:
[1] = molecular target: Mitogen-activated protein kinase 14 (Homo sapiens) (UniProt Q16539); test: Inhibition of MAPK p38alpha upto 100 uM
Chain of Mitogen-activated protein kinase 14 (Homo sapiens) (Q16539 whole entry, the tested form may be a part): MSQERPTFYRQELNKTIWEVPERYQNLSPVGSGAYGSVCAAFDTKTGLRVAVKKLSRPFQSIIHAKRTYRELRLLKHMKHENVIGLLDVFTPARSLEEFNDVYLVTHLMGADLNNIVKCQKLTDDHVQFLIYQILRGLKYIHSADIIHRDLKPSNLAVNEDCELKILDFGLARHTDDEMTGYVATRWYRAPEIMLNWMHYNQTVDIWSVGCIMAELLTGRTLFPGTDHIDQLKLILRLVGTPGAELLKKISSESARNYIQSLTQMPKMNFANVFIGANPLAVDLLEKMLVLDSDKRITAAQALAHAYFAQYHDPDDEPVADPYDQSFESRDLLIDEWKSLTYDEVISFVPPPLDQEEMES

[2] = molecular target: Mitogen-activated protein kinase 9 (Homo sapiens) (UniProt P45984); test: Displacement of biotin-labeled pep-JIP1 from GST fused JNK2 by DELFIA assay
Chain of Mitogen-activated protein kinase 9 (Homo sapiens) (P45984 whole entry, looked up, the tested form may be a part): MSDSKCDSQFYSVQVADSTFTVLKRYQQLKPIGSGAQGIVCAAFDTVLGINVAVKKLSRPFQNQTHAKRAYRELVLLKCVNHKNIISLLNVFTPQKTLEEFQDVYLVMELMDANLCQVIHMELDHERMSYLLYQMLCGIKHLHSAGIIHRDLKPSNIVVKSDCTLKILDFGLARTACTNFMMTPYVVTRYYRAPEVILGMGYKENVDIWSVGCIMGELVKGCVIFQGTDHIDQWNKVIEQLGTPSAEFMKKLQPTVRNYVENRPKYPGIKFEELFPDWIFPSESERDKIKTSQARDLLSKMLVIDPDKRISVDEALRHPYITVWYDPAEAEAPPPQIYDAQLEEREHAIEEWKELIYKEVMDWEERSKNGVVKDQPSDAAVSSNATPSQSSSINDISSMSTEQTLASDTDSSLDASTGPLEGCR

[3] = molecular target: Mitogen-activated protein kinase 8 (Homo sapiens, UniProt P45983); test: Inhibition of JNK1 by TR-FRET assay
Chain of Mitogen-activated protein kinase 8 (P45983 whole entry, the tested form may be a part): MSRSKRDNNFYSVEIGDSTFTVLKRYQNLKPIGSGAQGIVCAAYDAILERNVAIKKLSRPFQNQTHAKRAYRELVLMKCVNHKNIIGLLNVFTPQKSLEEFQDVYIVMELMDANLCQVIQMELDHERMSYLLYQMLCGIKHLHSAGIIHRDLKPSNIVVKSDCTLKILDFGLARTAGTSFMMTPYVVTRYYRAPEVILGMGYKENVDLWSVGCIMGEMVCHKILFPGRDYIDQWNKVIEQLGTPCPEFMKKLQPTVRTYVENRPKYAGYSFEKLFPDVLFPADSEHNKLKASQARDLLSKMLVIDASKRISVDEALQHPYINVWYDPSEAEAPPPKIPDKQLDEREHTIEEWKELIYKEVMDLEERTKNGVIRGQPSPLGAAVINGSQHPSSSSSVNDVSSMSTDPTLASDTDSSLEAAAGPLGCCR

[4] = molecular target: Mitogen-activated protein kinase 9 (Homo sapiens) (UniProt P45984); test: Displacement of biotin-labeled pep-JIP1 from GST fused JNK2 upto 200 uM by DELFIA assay

| IC50 [2] [µM] | IC50 [3] [µM] | Activity [4] | SMILES | further results |
| --- | --- | --- | --- | --- |
|  | 1.4 |  | O=C(O)CCCNC(=O)c1ccc(-c2n[nH]c3ccccc23)cc1 |  |
| 53 |  |  | CC(=O)N[C@@H](CCCNC(=N)N)C(=O)N1CCC[C@H]1C(=O)N[C@H](C(=O)N[C@H](C(=O)N[C@@H](CC(C)C)C(=O)N[C@@H](CC(N)=O)C(=O)N[C@@H](CC(C)C)C(=O)O)[C@@H](C)O)[C@@H](C)O (Ac-RPTTLNL-OH) |  |
|  | 1.2 |  | CC1(C)CC(NC(=O)CCCNC(=O)c2ccc(-c3n[nH]c4ccccc34)cc2)CC(C)(C)N1O |  |

More lines, now with the values behind:

| SMILES | IC50 [2] [µM] | IC50 [3] [µM] | Activity [4] | further results |
| --- | --- | --- | --- | --- |
| CC(=O)N[C@@H](CC(C)C)C(=O)N[C@@H](CC(N)=O)C(=O)N[C@@H](CC(C)C)C(=O)NCC(=O)NCC(=O)NCCCNC(=O)c1ccc(-c2n[nH]c3ccccc23)cc1 (Ac-LNLGG-X1) | 0.02 | 0.295 |  | Activity [1]: inactive |
| CC(=O)N[C@@H](CC(C)C)C(=O)N[C@@H](CC(N)=O)C(=O)N[C@@H](CC(C)C)C(=O)NCC(=O)NCC(=O)O (Ac-LNLGG-OH) |  |  | inactive |  |
| CC(=O)N[C@@H](CC(C)C)C(=O)N[C@@H](CC(N)=O)C(=O)N[C@@H](CC(C)C)C(=O)O (Ac-Leu-Asn-Leu-OH) |  |  | inactive |  |
